Laboratory results from PubChem BioAssay AID248 (DTP/NCI, 2004).
Several values for one entry are separate records, joined by “and”; a condition that tells them apart may be missing. Identical values can stand only once. Inconclusive results and toxic doses are left out. No stated cut-off is given here; in the data, active means T/C of 150% or more; inactive means T/C below 125%.

System: L1210 leukemia ip in BDF1 mice, survival T/C
Assay: NCI In Vivo Anticancer Drug Screen. Data for tumor model L1210 Leukemia (intraperitoneal) in B6D2F1 (BDF1) mice
Settings: endpoint: mean survival time, higher = longer survival
In short: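 Survival endpoint. Drug-treated group vs vehicle group, expressed as T divided by C. Tumor passaged by transplantation.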

[1] = dose: 100.0 mg/kg/injection, schedule: Q01DX009 (ip), vehicle: saline with Tween-80
[2] = dose: 200.0 mg/kg/injection, schedule: Q01DX009 (ip), vehicle: saline with Tween-80
[3] = dose: 50.0 mg/kg/injection, schedule: Q01DX009 (ip), vehicle: saline with Tween-80
[4] = dose: 100.0 mg/kg/injection, schedule: Q04DX003 (ip), vehicle: saline with Tween-80
[5] = dose: 200.0 mg/kg/injection, schedule: Q04DX003 (ip), vehicle: saline with Tween-80
[6] = dose: 100.0 mg/kg/injection, schedule: Q01DX001 (ip), vehicle: Klucel (hydroxypropylcellulose) (HPC)
[7] = dose: 100.0 mg/kg/injection, schedule: Q04DX002 (ip), vehicle: gum acacia
[8] = dose: 200.0 mg/kg/injection, schedule: Q01DX001 (ip), vehicle: Klucel (hydroxypropylcellulose) (HPC)
[9] = dose: 200.0 mg/kg/injection, schedule: Q04DX002 (ip), vehicle: gum acacia
[10] = dose: 400.0 mg/kg/injection, schedule: Q01DX001 (ip), vehicle: Klucel (hydroxypropylcellulose) (HPC)
[11] = dose: 100.0 mg/kg/injection, schedule: Q01DX009 (ip), vehicle: saline
[12] = dose: 200.0 mg/kg/injection, schedule: Q01DX009 (ip), vehicle: saline
[13] = dose: 400.0 mg/kg/injection, schedule: Q01DX009 (ip), vehicle: saline
[14] = dose: 100.0 mg/kg/injection, schedule: Q01DX001 (ip), vehicle: saline
[15] = dose: 200.0 mg/kg/injection, schedule: Q01DX001 (ip), vehicle: saline
[16] = dose: 400.0 mg/kg/injection, schedule: Q01DX001 (ip), vehicle: saline
[17] = dose: 50.0 mg/kg/injection, schedule: Q01DX001 (ip), vehicle: saline

Measured: T/C

CC(C)(C)OC(=O)NCCCCC(NC(=O)OCc1ccccc1)C(=O)Oc1ccc([N+](=O)[O-])cc1 (stereo unspecified)
inactive: [1] 88 % of control | [2] 93 % of control

N#CSc1c[nH]c2ccccc12
inactive: [3] 96 % of control | [1] 101 % of control | [4] 104 % of control | [5] 95 % of control

COC(=O)Nc1ccccc1
inactive: [6] 97 % of control | [7] 113 % of control | [8] 98 % of control | [9] 100 % of control | [10] 101 % of control | dose: 400.0 mg/kg/injection, schedule: Q04DX002 (ip), vehicle: gum acacia 103 % of control

c1ccc(CNCCNCc2ccccn2)nc1
inactive: dose: 1.25 mg/kg/injection, schedule: Q04DX002 (ip), vehicle: saline 106 % of control | dose: 2.5 mg/kg/injection, schedule: Q04DX002 (ip), vehicle: saline 113 % of control | dose: 5.0 mg/kg/injection, schedule: Q04DX002 (ip), vehicle: saline 106 % of control | dose: 10.0 mg/kg/injection, schedule: Q04DX002 (ip), vehicle: saline 102 % of control

NC(CCSC(c1ccccc1)(c1ccccc1)c1ccccc1)C(=O)O (stereo unspecified)
inactive: dose: 50.0 mg/kg/injection, schedule: Q01DX009 (ip), vehicle: saline 94 % of control and 103 % of control | [11] 95 % of control and 107 % of control | [12] 97 % of control and 106 % of control | [13] 100 % of control and 108 % of control

C=CCOc1ccnc(-c2ccccc2)n1
inactive: [6] 92 % of control | [8] 95 % of control | [10] 98 % of control

Cc1cccc(C(=O)O)[n+]1[O-]
inactive: dose: 50.0 mg/kg/injection, schedule: Q01DX001 (ip), vehicle: carboxymethylcellulose (CMC) 100 % of control | dose: 100.0 mg/kg/injection, schedule: Q01DX001 (ip), vehicle: carboxymethylcellulose (CMC) 95 % of control | dose: 200.0 mg/kg/injection, schedule: Q01DX001 (ip), vehicle: carboxymethylcellulose (CMC) 98 % of control | dose: 400.0 mg/kg/injection, schedule: Q01DX001 (ip), vehicle: carboxymethylcellulose (CMC) 100 % of control

C/C(=N/NC(=O)c1ccccc1)c1ccc(Cl)cc1Cl
inactive: dose: 100.0 mg/kg/injection, schedule: Q04DX003 (ip), vehicle: other 97 % of control | dose: 200.0 mg/kg/injection, schedule: Q04DX003 (ip), vehicle: other 108 % of control

O=C(O)CCCC[P+](c1ccccc1)(c1ccccc1)c1ccccc1
inactive: [11] 98 % of control | dose: 100.0 mg/kg/injection, schedule: Q04DX003 (ip), vehicle: saline 105 % of control | [12] 100 % of control | dose: 200.0 mg/kg/injection, schedule: Q04DX003 (ip), vehicle: saline 107 % of control | dose: 400.0 mg/kg/injection, schedule: Q04DX003 (ip), vehicle: saline 102 % of control

O=C1C=C(Nc2ccc(S(=O)(=O)c3ccc(NC4=CC(=O)C(=O)c5ccccc54)cc3)cc2)c2ccccc2C1=O
inactive: dose: 75.0 mg/kg/injection, schedule: Q01DX001 (ip), vehicle: saline 93 % of control | dose: 150.0 mg/kg/injection, schedule: Q01DX001 (ip), vehicle: saline 96 % of control | dose: 300.0 mg/kg/injection, schedule: Q01DX001 (ip), vehicle: saline 96 % of control

Oc1c(CN2CCOCC2)cc(CN2CCOCC2)cc1CN1CCOCC1
inactive: [14] 116 % of control | [11] 95 % of control | [4] 104 % of control | [15] 98 % of control | [12] 90 % of control | [5] 95 % of control | [16] 96 % of control | [13] 100 % of control | dose: 400.0 mg/kg/injection, schedule: Q04DX003 (ip), vehicle: saline with Tween-80 98 % of control

O=C1OC(=O)c2ccc([N+](=O)[O-])c3c(C(=O)O)ccc1c23
inactive: [17] 101 % of control | [14] 104 % of control | [15] 104 % of control | [16] 104 % of control

N#CCCn1c2ccccc2c2ccccc21
inactive: [17] 96 % of control | dose: 50.0 mg/kg/injection, schedule: Q04DX002 (ip), vehicle: gum acacia 91 % of control | [14] 102 % of control | [7] 91 % of control | [15] 102 % of control | [9] 98 % of control | [16] 96 % of control

O=C(Cc1ccccc1)Nc1cccc(O)c1
inactive: dose: 100.0 mg/kg/injection, schedule: Q01DX001 (ip), vehicle: saline with Tween-80 97 % of control | dose: 200.0 mg/kg/injection, schedule: Q01DX001 (ip), vehicle: saline with Tween-80 96 % of control | dose: 400.0 mg/kg/injection, schedule: Q01DX001 (ip), vehicle: saline with Tween-80 95 % of control

OCC1OC(c2[nH]nc3c([Se])ncnc23)C(O)C1O (stereo unspecified)
inactive: dose: 1.56 mg/kg/injection, schedule: Q01DX005 (ip), vehicle: saline 95 % of control | dose: 1.56 mg/kg/injection, schedule: Q01DX009 (ip), vehicle: saline 95 % of control | dose: 3.12 mg/kg/injection, schedule: Q01DX005 (ip), vehicle: saline 97 % of control | dose: 3.12 mg/kg/injection, schedule: Q01DX009 (ip), vehicle: saline 100 % of control | dose: 6.25 mg/kg/injection, schedule: Q01DX005 (ip), vehicle: saline 99 % of control | dose: 6.25 mg/kg/injection, schedule: Q01DX009 (ip), vehicle: saline 97 % of control | dose: 12.5 mg/kg/injection, schedule: Q01DX009 (ip), vehicle: saline 90 % of control

CNC(=O)C1C(c2ccccc2)C1c1ccccc1 (stereo unspecified)
inactive: dose: 100.0 mg/kg/injection, schedule: Q04DX002 (ip), vehicle: Klucel (hydroxypropylcellulose) (HPC) 102 % of control | dose: 200.0 mg/kg/injection, schedule: Q04DX002 (ip), vehicle: Klucel (hydroxypropylcellulose) (HPC) 97 % of control | dose: 400.0 mg/kg/injection, schedule: Q04DX002 (ip), vehicle: Klucel (hydroxypropylcellulose) (HPC) 94 % of control

CC(=O)c1cccc2c1cc(Cl)c1ccccc12
inactive: dose: 55.0 mg/kg/injection, schedule: Q01DX Z (ip), vehicle: methylcellulose (MC) 100 % of control | dose: 83.0 mg/kg/injection, schedule: Q01DX Z (ip), vehicle: methylcellulose (MC) 93 % of control | dose: 125.0 mg/kg/injection, schedule: Q01DX Z (ip), vehicle: methylcellulose (MC) 93 % of control

OC1/C(=C/c2ccccc2)c2cccc3cccc1c23 (stereo unspecified)
inactive: [3] 90 % of control | [1] 93 % of control | [2] 93 % of control
